Test results from the supplement of paper PMC11451515.

Tested on: NOMO1
Assay: cell viability relative to DMSO control; higher = less cytotoxic
Conditions: 48 h
Procedure, shortened: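 Before seeding, each leukemia line was adapted for at least four passages in each medium. NOMO1 or SEM cells (500 cells/well) and P12-Ichikawa cells (1000 cells/well) went into 1536-well plates at 5 μl, then received library compounds in DMSO by pin dosing across 11 threefold concentrations, 47 μM to 0.79 nM. Readout was CellTiter-Glo One luminescence after 48 h at 37°C, and viability is given as a per-plate percentage of DMSO wells, with cell-free wells as background.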

[1] = RPMI 5 mM glucose + 10% FBS, 0.000781 µM
[2] = RPMI 5 mM glucose + 10% FBS, 0.00234 µM
[3] = RPMI 5 mM glucose + 10% FBS, 0.00702 µM
[4] = RPMI 5 mM glucose + 10% FBS, 0.0211 µM
[5] = RPMI 5 mM glucose + 10% FBS, 0.0632 µM
[6] = RPMI 5 mM glucose + 10% FBS, 0.19 µM
[7] = RPMI 5 mM glucose + 10% FBS, 0.569 µM
[8] = RPMI 5 mM glucose + 10% FBS, 1.71 µM
[9] = RPMI 5 mM glucose + 10% FBS, 5.12 µM
[10] = RPMI 5 mM glucose + 10% FBS, 15.4 µM
[11] = RPMI 5 mM glucose + 10% FBS, 46.1 µM
[12] = RPMI 5 mM glucose + 10% dialyzed FBS, 0.000781 µM
[13] = RPMI 5 mM glucose + 10% dialyzed FBS, 0.00234 µM
[14] = RPMI 5 mM glucose + 10% dialyzed FBS, 0.00702 µM
[15] = RPMI 5 mM glucose + 10% dialyzed FBS, 0.0211 µM
[16] = RPMI 5 mM glucose + 10% dialyzed FBS, 0.0632 µM
[17] = RPMI 5 mM glucose + 10% dialyzed FBS, 0.19 µM
[18] = RPMI 5 mM glucose + 10% dialyzed FBS, 0.569 µM
[19] = RPMI 5 mM glucose + 10% dialyzed FBS, 1.71 µM
[20] = RPMI 5 mM glucose + 10% dialyzed FBS, 5.12 µM
[21] = RPMI 5 mM glucose + 10% dialyzed FBS, 15.4 µM
[22] = RPMI 5 mM glucose + 10% dialyzed FBS, 46.1 µM
[23] = HPLM + 10% dialyzed FBS, 0.000781 µM
[24] = HPLM + 10% dialyzed FBS, 0.00234 µM
[25] = HPLM + 10% dialyzed FBS, 0.00702 µM
[26] = HPLM + 10% dialyzed FBS, 0.0211 µM
[27] = HPLM + 10% dialyzed FBS, 0.0632 µM
[28] = HPLM + 10% dialyzed FBS, 0.19 µM
[29] = HPLM + 10% dialyzed FBS, 0.569 µM
[30] = HPLM + 10% dialyzed FBS, 1.71 µM
[31] = HPLM + 10% dialyzed FBS, 5.12 µM
[32] = HPLM + 10% dialyzed FBS, 15.4 µM
[33] = HPLM + 10% dialyzed FBS, 46.1 µM

Structure (SMILES) | cell viability [1] [%] | cell viability [2] [%] | cell viability [3] [%] | cell viability [4] [%] | cell viability [5] [%] | cell viability [6] [%] | cell viability [7] [%] | cell viability [8] [%] | cell viability [9] [%] | cell viability [10] [%] | cell viability [11] [%] | cell viability [12] [%] | cell viability [13] [%] | cell viability [14] [%] | cell viability [15] [%] | cell viability [16] [%] | cell viability [17] [%] | cell viability [18] [%] | cell viability [19] [%] | cell viability [20] [%] | cell viability [21] [%] | cell viability [22] [%] | cell viability [23] [%] | cell viability [24] [%] | cell viability [25] [%] | cell viability [26] [%] | cell viability [27] [%] | cell viability [28] [%] | cell viability [29] [%] | cell viability [30] [%] | cell viability [31] [%] | cell viability [32] [%] | cell viability [33] [%]
O=C(Nc1cccc(Nc2ncc(Br)c(NCCc3cnc[nH]3)n2)c1)N1CCCC1 | 113 | 117 | 122 | 112 | 112 | 110 | 68.7 | 71.1 | 62.8 | 12.4 | 1.13 | 103 | 106 | 107 | 107 | 113 | 95.2 | 92.2 | 59.6 | 65.2 | 37.1 | 0.0873 |  |  |  |  |  |  |  |  |  |  | 
OCc1ccc(-c2nn(Cc3ccccc3)c3ccccc23)o1 | 104 | 111 | 104 | 102 | 95.4 | 96.4 | 96.8 | 93.4 | 98.6 | 38 | 8.67 | 110 | 105 | 105 | 113 | 107 | 105 | 107 | 89.6 | 81.6 | 42.4 | 7.56 | 120 | 101 | 120 | 127 | 108 | 101 | 111 | 64.6 | 91.6 | 38.5 | 9
c1cc(CN2CCCNCCNCCCNCC2)ccc1CN1CCCNCCNCCCNCC1 | 88.4 | 85.8 | 97.8 | 18.6 | 89.2 | 105 | 86.7 | 88.4 | 85.4 | 101 | 92.5 | 89.2 | 78.2 | 83.5 | 33 | 98.3 | 93.9 | 102 | 92.7 | 91.3 | 91.4 | 93.4 | 79.6 | 109 | 100 | 30.5 | 117 | 108 | 102 | 109 | 109 | 106 | 104
Cc1cccc(C)c1OCC(=O)N[C@@H](Cc1ccccc1)[C@@H](O)C[C@H](Cc1ccccc1)NC(=O)[C@H](C(C)C)N1CCCNC1=O | 85.8 | 94 | 97.7 | 85.8 | 95.9 | 97.3 | 84 | 78.4 | 83 | 86.4 | 74.4 | 96.9 | 92.9 | 92.9 | 107 | 91.1 | 89.2 | 81.1 | 82.4 | 89.4 | 76.5 | 71 | 95.1 | 106 | 102 | 109 | 104 | 111 | 89 | 91.5 | 91.4 | 81 | 43.9
NC1=NC=C(C=C1)C2=CC=C3N=CC\4=C(N(C(=O)\C=C4)C5=CC(=CC=C5)C(F)(F)F)C3=C2 | 86.1 | 83.9 | 75.3 | 74.4 | 55 | 29.7 | 30.3 | 23.2 | 15.3 | 11.7 | 13.2 | 68.9 | 72.8 | 74.1 | 61.4 | 46 | 28.5 | 29.5 | 22.9 | 17.2 | 13.5 | 17.1 | 80.5 | 76.8 | 62.6 | 57.6 | 41.2 | 27.1 | 24.1 | 24.3 | 21.4 | 18.6 | 16.5
CN(C)C(=O)c1ccc([S+](=O)([O-])c2ccc(NC(=O)[C@@](C)(O)C(F)(F)F)c(Cl)c2)cc1 | 104 | 109 | 102 | 105 | 114 | 101 | 112 | 99.4 | 105 | 38.7 | 13.5 | 95.9 | 109 | 116 | 118 | 108 | 104 | 104 | 91.2 | 99.8 | 89.7 | 60.4 | 104 | 104 | 114 | 123 | 95.9 | 128 | 126 | 105 | 91.3 | 33 | 10.2
CCOC(=O)[C@H](CCc1ccccc1)N[C@@H](C)C(=O)N1CCC[C@H]1C(=O)O | 114 | 105 | 111 | 102 | 102 | 105 | 97.7 | 103 | 98.7 | 93.3 | 103 | 97.9 | 109 | 116 | 122 | 116 | 123 | 112 | 110 | 103 | 96 | 99.5 | 128 | 105 | 117 | 134 | 125 | 119 | 108 | 119 | 110 | 99.8 | 102
CCc1c(C(=O)C(N)=O)c2c(OCC(=O)O)cccc2n1Cc1ccccc1 | 92 | 105 | 91.1 | 103 | 104 | 93.1 | 89.2 | 103 | 98.2 | 100 | 92.3 | 95.3 | 103 | 105 | 101 | 105 | 86.9 | 103 | 96.6 | 96.3 | 91.6 | 92 | 113 | 105 | 94.9 | 103 | 122 | 103 | 107 | 100 | 89.4 | 90.8 | 96.5
Cc1cccc(-c2nn(C(=S)Nc3ccccc3)cc2-c2ccnc3ccccc23)n1 | 108 | 118 | 109 | 122 | 111 | 113 | 119 | 108 | 115 | 81.6 | 94.9 | 115 | 122 | 112 | 119 | 115 | 103 | 111 | 104 | 117 | 112 | 102 |  |  |  |  |  |  |  |  |  |  | 
CC(=O)Nc1ccc([C@H](C)C(=O)Nc2ncc(C(C)C)s2)cc1 | 88.4 | 99.9 | 84.9 | 90.8 | 110 | 93.6 | 104 | 84.5 | 44.6 | 9.84 | 4.44 | 104 | 93.5 | 96.3 | 100 | 95.2 | 92 | 95.4 | 104 | 68.2 | 8.22 | 4.09 | 109 | 123 | 97.2 | 99 | 106 | 103 | 119 | 96.8 | 79.1 | 6.43 | 4.34
CCN(CC)C(=S)SSC(=S)N(CC)CC | 104 | 112 | 119 | 120 | 129 | 110 | 127 | 127 | 4.7 | 12.4 | 3.34 | 114 | 120 | 131 | 122 | 123 | 128 | 131 | 120 | 6.51 | 5.46 | 2.56 | 97.9 | 112 | 135 | 130 | 131 | 121 | 147 | 132 | 5.58 | 46.8 | 2.75
CC1=CC=CC=C1CN2C(=O)C/3=C(/CCN(CC4=CC=CC=C4)C3)N\5CC\N=C25 | 109 | 118 | 121 | 124 | 134 | 113 | 116 | 119 | 59 | 20.1 | 21.4 | 132 | 118 | 122 | 126 | 120 | 122 | 133 | 86.6 | 69.9 | 25.9 | 23.6 |  |  |  |  |  |  |  |  |  |  | 
CC[C@H]1/C=C\C=C/C[C@@H](C)[C@H](O)[C@@](C)(O)C(=O)[C@@H](C)[C@H](O)[C@@H](C)C(=O)[C@@H](C)[C@H](O)[C@@H](C)/C=C/C(=O)O[C@@H]2[C@H](C)[C@H](CC1)O[C@]1(CC[C@H](C)[C@H](C[C@@H](C)O)O1)[C@H]2C | 83 | 86.4 | 87.1 | 88.9 | 82.7 | 104 | 92.7 | 44.7 | 39.1 | 37.6 | 4.56 | 81.4 | 89.2 | 92.9 | 83.9 | 75.1 | 94.4 | 79.7 | 54.2 | 39.9 | 31.6 | 4.92 | 74.4 | 89.4 | 105 | 117 | 103 | 106 | 108 | 55.4 | 40.7 | 31.6 | 5.57
O=C(CO)N1CCC(c2n[nH]c(-c3ccc(Cl)cc3)c2-c2ccncn2)CC1 | 111 | 115 | 118 | 113 | 121 | 111 | 113 | 115 | 119 | 57.3 | 96.3 | 113 | 123 | 116 | 105 | 123 | 111 | 109 | 119 | 113 | 41.6 | 92.8 | 117 | 121 | 134 | 129 | 117 | 129 | 120 | 117 | 123 | 34.6 | 78.2
Cc1ncc(OC[C@@]2(c3cccc(F)c3)C[C@H]2C(=O)Nc2ccc(F)cn2)c(C)n1 | 105 | 93.8 | 125 | 92.7 | 105 | 113 | 107 | 92.2 | 102 | 101 | 116 | 102 | 107 | 105 | 106 | 119 | 110 | 97 | 101 | 112 | 110 | 116 | 108 | 106 | 122 | 120 | 125 | 129 | 117 | 105 | 120 | 117 | 108
CC(C)(C)C(=O)Oc1ccc([S+](=O)([O-])Nc2ccccc2C(=O)NCC(=O)O)cc1 | 107 | 102 | 99.7 | 98.4 | 112 | 108 | 114 | 117 | 104 | 109 | 129 | 110 | 117 | 113 | 122 | 109 | 122 | 119 | 116 | 129 | 131 | 124 | 115 | 106 | 139 | 122 | 117 | 110 | 109 | 113 | 129 | 122 | 134
